Assay results from PubChem BioAssay AID330 (DTP/NCI, 2004).
Where “and” joins values, the source holds several entries; their conditions need not be identical. Identical values can stand only once. Toxic doses and inconclusive results are not listed.

System: P388 leukemia ip, CD2F1 mice, survival T/C
Assay: NCI In Vivo Anticancer Drug Screen. Data for tumor model P388 Leukemia (intraperitoneal) in CD2F1 (CDF1) mice
Settings: endpoint: median survival time, higher = longer survival
Summary of the method: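 Mice carrying the transplanted tumor received test compound or vehicle. Survival was recorded in each group, and the value is the treated-group measurement divided by that of the vehicle-treated control group.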

[1] = dose: 50.0 mg/kg/injection, schedule: Q01DX005 (ip), vehicle: saline with Tween-80
[2] = dose: 100.0 mg/kg/injection, schedule: Q01DX005 (ip), vehicle: saline with Tween-80
[3] = dose: 200.0 mg/kg/injection, schedule: Q01DX005 (ip), vehicle: saline with Tween-80
[4] = dose: 12.5 mg/kg/injection, schedule: Q01DX009 (ip), vehicle: saline with Tween-80
[5] = dose: 25.0 mg/kg/injection, schedule: Q01DX009 (ip), vehicle: saline with Tween-80
[6] = dose: 50.0 mg/kg/injection, schedule: Q01DX009 (ip), vehicle: saline with Tween-80
[7] = dose: 100.0 mg/kg/injection, schedule: Q01DX009 (ip), vehicle: saline with Tween-80
[8] = dose: 200.0 mg/kg/injection, schedule: Q01DX009 (ip), vehicle: saline with Tween-80
[9] = dose: 50.0 mg/kg/injection, schedule: Q04DX003 (ip), vehicle: saline with Tween-80
[10] = dose: 200.0 mg/kg/injection, schedule: Q04DX003 (ip), vehicle: saline with Tween-80
[11] = dose: 60.0 mg/kg/injection, schedule: Q01DX005 (ip), vehicle: Klucel (hydroxypropylcellulose) (HPC)
[12] = dose: 120.0 mg/kg/injection, schedule: Q01DX005 (ip), vehicle: Klucel (hydroxypropylcellulose) (HPC)
[13] = dose: 50.0 mg/kg/injection, schedule: Q01DX009 (ip), vehicle: saline
[14] = dose: 100.0 mg/kg/injection, schedule: Q01DX009 (ip), vehicle: saline
[15] = dose: 25.0 mg/kg/injection, schedule: Q01DX005 (ip), vehicle: saline with Tween-80
[16] = dose: 240.0 mg/kg/injection, schedule: Q01DX005 (ip), vehicle: Klucel (hydroxypropylcellulose) (HPC)
[17] = dose: 3.13 mg/kg/injection, schedule: Q04DX003 (ip), vehicle: saline
[18] = dose: 100.0 mg/kg/injection, schedule: Q01DX001 (ip), vehicle: saline with Tween-80
[19] = dose: 200.0 mg/kg/injection, schedule: Q01DX001 (ip), vehicle: saline with Tween-80
[20] = dose: 400.0 mg/kg/injection, schedule: Q01DX001 (ip), vehicle: saline with Tween-80

## O/N=C/c1c(Cl)nc2sccn12
dose: 50.0 mg/kg/injection, schedule: Q01DX001 (ip), vehicle: Klucel (hydroxypropylcellulose) (HPC)
  T/C: 100 % of control
dose: 100.0 mg/kg/injection, schedule: Q01DX001 (ip), vehicle: Klucel (hydroxypropylcellulose) (HPC)
  T/C: 100 % of control and 91 % of control
dose: 200.0 mg/kg/injection, schedule: Q01DX001 (ip), vehicle: Klucel (hydroxypropylcellulose) (HPC)
  T/C: 89 % of control and 97 % of control

## CC1=NN(C(=O)CC(=O)Nc2ccc(C(=O)O)cc2)C(=O)C1N=Nc1ccccc1C(=O)O (centres undefined)
[1]
  T/C: 110 % of control
[2]
  T/C: 111 % of control
[3]
  T/C: 110 % of control

## CC1(C)C2CCC(O2)C(C)(C)C2CCC(O2)C(C)(C)C2CCC(O2)C(C)(C)C2CCC1O2
[1]
  T/C: 102 % of control
[2]
  T/C: 100 % of control
[3]
  T/C: 95 % of control

## Cc1ccc(/C=N/NC(=O)C(=O)Nc2ccc(Cl)c([N+](=O)[O-])c2)cc1
dose: 6.25 mg/kg/injection, schedule: Q01DX005 (ip), vehicle: saline with Tween-80
  T/C: 88 % of control
dose: 12.5 mg/kg/injection, schedule: Q01DX005 (ip), vehicle: saline with Tween-80
  T/C: 95 % of control

## COc1cc(C)c2c(=O)c3c(oc2c1)C(=O)c1c(O)c(OC)cc(O)c1C3=O
[4]
  T/C: 115 % of control
[5]
  T/C: 108 % of control
[6]
  T/C: 114 % of control
[7]
  T/C: 115 % of control
[8]
  T/C: 103 % of control

## O=C(O)C(O)C(O)C1[O][Sb][O]C1C(=O)O (centres undefined)
dose: 12.5 mg/kg/injection, schedule: Q01DX005 (ip), vehicle: saline
  T/C: 110 % of control
[1]
  T/C: 100 % of control and 101 % of control and 94 % of control
[2]
  T/C: 100 % of control and 108 % of control and 109 % of control
[3]
  T/C: 111 % of control and 117 % of control
dose: 400.0 mg/kg/injection, schedule: Q01DX005 (ip), vehicle: saline with Tween-80
  T/C: 118 % of control and 120 % of control

## CCCCCC(C=O)C(O)(C(F)(F)F)C(F)(F)Cl (centres undefined)
[9]
  T/C: 100 % of control
dose: 100.0 mg/kg/injection, schedule: Q04DX003 (ip), vehicle: saline with Tween-80
  T/C: 100 % of control
[10]
  T/C: 109 % of control

## NC(CSC(c1ccccc1)(c1ccccc1)c1ccc(Cl)cc1)C(=O)O (centres undefined)
dose: 33.0 mg/kg/injection, schedule: Q04DX003 (ip), vehicle: saline with Tween-80
  T/C: 177 % of control
[9]
  T/C: 181 % of control and 272 % of control
dose: 75.0 mg/kg/injection, schedule: Q04DX003 (ip), vehicle: saline with Tween-80
  T/C: 200 % of control
[10]
  T/C: 100 % of control

## CN(C)c1ccc2[nH]c3ccccc3c2c1
dose: 60.0 mg/kg/injection, schedule: Q01DX005 (ip), vehicle: saline with Tween-80
  T/C: 107 % of control
dose: 120.0 mg/kg/injection, schedule: Q01DX005 (ip), vehicle: saline with Tween-80
  T/C: 108 % of control
dose: 240.0 mg/kg/injection, schedule: Q01DX005 (ip), vehicle: saline with Tween-80
  T/C: 121 % of control

## CC(=O)NS(=O)(=O)c1ccc(N=Cc2c3ccccc3nc3cc(Cl)ccc23)cc1
dose: 100.0 mg/kg/injection, schedule: Q04DX002 (ip), vehicle: saline with Tween-80
  T/C: 101 % of control
dose: 200.0 mg/kg/injection, schedule: Q04DX002 (ip), vehicle: saline with Tween-80
  T/C: 93 % of control
dose: 400.0 mg/kg/injection, schedule: Q04DX002 (ip), vehicle: saline with Tween-80
  T/C: 101 % of control

## Cc1nc(=S)c2ncn(-c3ccccc3)c2[nH]1
[11]
  T/C: 95 % of control
[12]
  T/C: 94 % of control

## CC1=CCC2C([C@H]1OC(=O)c1ccc([N+](=O)[O-])cc1)C(C)(C)CCC[C@]2(C)O (some centres undefined)
dose: 100.0 mg/kg/injection, schedule: Q04DX002 (ip), vehicle: Klucel (hydroxypropylcellulose) (HPC)
  T/C: 98 % of control
dose: 200.0 mg/kg/injection, schedule: Q04DX002 (ip), vehicle: Klucel (hydroxypropylcellulose) (HPC)
  T/C: 89 % of control
dose: 400.0 mg/kg/injection, schedule: Q04DX002 (ip), vehicle: Klucel (hydroxypropylcellulose) (HPC)
  T/C: 90 % of control

## C[N+](C)(C)CCC(=O)c1ccc([N+](=O)[O-])cc1
[13]
  T/C: 109 % of control
[14]
  T/C: 118 % of control

## [Zn].c1c[nH]cn1.c1c[nH]cn1.c1c[nH]cn1.c1c[nH]cn1
[15]
  T/C: 107 % of control and 109 % of control
[1]
  T/C: 106 % of control and 110 % of control and 115 % of control

## c1nnc2c3c4c(sc3ncn12)CCCC4
[1]
  T/C: 97 % of control
[2]
  T/C: 91 % of control

## CCCCCCCN(CCCCCCC)CC(O)c1c(OC)c2cc(Cl)ccc2c2ccc(Cl)cc12 (centres undefined)
dose: 10.0 mg/kg/injection, schedule: Q01DX009 (ip), vehicle: saline with Tween-80
  T/C: 94 % of control
dose: 20.0 mg/kg/injection, schedule: Q01DX009 (ip), vehicle: saline with Tween-80
  T/C: 90 % of control
dose: 40.0 mg/kg/injection, schedule: Q01DX009 (ip), vehicle: saline with Tween-80
  T/C: 92 % of control

## COc1cc(CC(CC(=O)c2ccc3c(c2)OCO3)C(=O)O)cc(OC)c1OC (centres undefined)
dose: 50.0 mg/kg/injection, schedule: Q01DX005 (ip), vehicle: Klucel (hydroxypropylcellulose) (HPC)
  T/C: 94 % of control
dose: 100.0 mg/kg/injection, schedule: Q01DX005 (ip), vehicle: Klucel (hydroxypropylcellulose) (HPC)
  T/C: 99 % of control
dose: 200.0 mg/kg/injection, schedule: Q01DX005 (ip), vehicle: Klucel (hydroxypropylcellulose) (HPC)
  T/C: 94 % of control

## Cc1c(-c2ccccc2)n(O)c(-c2ccc([N+](=O)[O-])cc2)[n+]1[O-]
[6]
  T/C: 99 % of control
[7]
  T/C: 94 % of control
[8]
  T/C: 94 % of control

## Nc1c(Br)cc(Br)c2c1C(=O)c1c(cccc1S(=O)(=O)O)C2=O
[1]
  T/C: 102 % of control
[2]
  T/C: 98 % of control
[3]
  T/C: 107 % of control

## CSc1n[nH]c(C(F)(F)F)n1
dose: 30.0 mg/kg/injection, schedule: Q01DX005 (ip), vehicle: Klucel (hydroxypropylcellulose) (HPC)
  T/C: 105 % of control
[11]
  T/C: 103 % of control
[12]
  T/C: 95 % of control
[16]
  T/C: 94 % of control

## CS(=O)(=O)OCCN(CCOS(C)(=O)=O)c1ccccc1
dose: 1.56 mg/kg/injection, schedule: Q04DX003 (ip), vehicle: saline
  T/C: 109 % of control
[17]
  T/C: 104 % of control
dose: 6.25 mg/kg/injection, schedule: Q01DX009 (ip), vehicle: saline with Tween-80
  T/C: 154 % of control
dose: 6.25 mg/kg/injection, schedule: Q04DX003 (ip), vehicle: saline
  T/C: 122 % of control
[4]
  T/C: 200 % of control
[5]
  T/C: 181 % of control
dose: 25.0 mg/kg/injection, schedule: Q01DX009 (ip), vehicle: saline
  T/C: 204 % of control
dose: 25.0 mg/kg/injection, schedule: Q04DX003 (ip), vehicle: saline
  T/C: 204 % of control
[13]
  T/C: 90 % of control

## Nc1[nH]c(=O)[nH]c(=O)c1N=O
[11]
  T/C: 101 % of control and 96 % of control
[12]
  T/C: 101 % of control and 108 % of control
[16]
  T/C: 104 % of control and 98 % of control

## COc1ccc(S(=O)(=O)N/N=C/CN(C)C)cc1
[15]
  T/C: 101 % of control
[1]
  T/C: 101 % of control
[2]
  T/C: 101 % of control
[3]
  T/C: 99 % of control

## Cc1c(CNc2ccc(C(=O)NC(CC(=O)O)CC(=O)O)cc2)ccc2nc(N)nc(N)c12
[17]
  T/C: 229 % of control
dose: 12.5 mg/kg/injection, schedule: Q04DX003 (ip), vehicle: saline with Tween-80
  T/C: 118 % of control
dose: 25.0 mg/kg/injection, schedule: Q04DX003 (ip), vehicle: saline with Tween-80
  T/C: 113 % of control
dose: 33.0 mg/kg/injection, schedule: Q04DX003 (ip), vehicle: saline sonified
  T/C: 90 % of control
dose: 50.0 mg/kg/injection, schedule: Q04DX003 (ip), vehicle: saline sonified
  T/C: 86 % of control
[9]
  T/C: 159 % of control

## COc1ccc(C(=O)CCN(C)C)cc1
[13]
  T/C: 104 % of control
[14]
  T/C: 104 % of control

## O=C1OCc2c[n+]([O-])ccc21
dose: 20.0 mg/kg/injection, schedule: Q01DX005 (ip), vehicle: Klucel (hydroxypropylcellulose) (HPC)
  T/C: 96 % of control
dose: 40.0 mg/kg/injection, schedule: Q01DX005 (ip), vehicle: Klucel (hydroxypropylcellulose) (HPC)
  T/C: 118 % of control
dose: 80.0 mg/kg/injection, schedule: Q01DX005 (ip), vehicle: Klucel (hydroxypropylcellulose) (HPC)
  T/C: 91 % of control

## CN1C(=O)C(CC(=O)O)(Cc2ccccc2)N(C(=O)c2ccccc2)[C@H]1C(C)(C)C (some centres undefined)
[18]
  T/C: 112 % of control
[19]
  T/C: 94 % of control
[20]
  T/C: 108 % of control

## CC(C)P(C(C)C)C(C)C
[18]
  T/C: 104 % of control
[19]
  T/C: 104 % of control
[20]
  T/C: 95 % of control
